Patent US10028966B2 (Avalyn Pharma Inc., priority 2014, dated 2018)
Converted amounts (≈) assume the structure as drawn.

Key:
[1] = Co-solvent and surfactant effects on pirfenidone saturation solubility; assay type: physicochemical; settings: thermodynamic from solid;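 further: samples equilibrated by overnight agitation at ambient temperature, with solubility taken from the supernatant after undissolved solid was removed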
Protocol: Each sample was agitated at ambient temperature overnight. The samples were visually inspected and appearance recorded. Samples were centrifuged to sediment any un-dissolved material and the supernatant withdrawn via syringe through a 0.22 μm PVDF filter. […] The remaining filtered sample was split into three equal volumes in glass vials and placed at 25° C./60 RH, 40° C./75 RH and refrigeration. Samples are wrapped in aluminum foil to reduce light exposure. After the first night of incubation, samples are briefly visually inspected for any signs of discoloration or precipitate formation.

[2] = Aerosol tolerability analysis of low concentration dosage forms; settings: citrate 5 mM
Text: Additional observations include maintaining osmolality between about 250 to about 500 mOsmo/kg. The tolerability for formulations with an osmolalty outside this range may be adjusted with modifications in the above formulation parameters and device output and aerosol particle size characteristics.

Cc1ccc(=O)n(-c2ccccc2)c1 [pirfenidone, 5-methyl-1-phenyl-2-(1H)-pyridone]
solubility ([1]; aqueous co-solvent/surfactant solvent system, pH 4.4, aqueous with cosolvent or surfactant or cyclodextrin, 4% Gly, 0.04% PS80, 96.0% citrate buffer (10 mM), pH 4.4): 17.6 mg/mL (≈ 95 mM) | solubility ([1]; aqueous co-solvent/surfactant solvent system, pH 4.5, aqueous with cosolvent or surfactant or cyclodextrin, 4% EtOH, 0.04% PS80, 96.0% citrate buffer (10 mM), pH 4.5): 21.9 mg/mL (≈ 118 mM) | solubility ([1]; aqueous co-solvent/surfactant solvent system, pH 4.5, aqueous with cosolvent or surfactant or cyclodextrin, 4% EtOH, 0.1% CPB, 95.9% citrate buffer (10 mM), pH 4.5): 20.4 mg/mL (≈ 110 mM) | solubility ([1]; aqueous co-solvent/surfactant solvent system, pH 4.5, aqueous with cosolvent or surfactant or cyclodextrin, 8% PG, 0.04% PS80, 92.0% citrate buffer (10 mM), pH 4.5): 23.2 mg/mL (≈ 125 mM) | solubility ([1]; aqueous co-solvent/surfactant solvent system, pH 4.5, aqueous with cosolvent or surfactant or cyclodextrin, 8% PG, 0.1% CPB, 91.9% citrate buffer (10 mM), pH 4.5): 21 mg/mL (≈ 113 mM) | solubility ([1]; aqueous co-solvent/surfactant solvent system, pH 4.6, aqueous with cosolvent or surfactant or cyclodextrin, 8% PG, 0.04% PS80, 92.0% water, pH 4.6): 23.4 mg/mL (≈ 126 mM) | solubility ([1]; aqueous co-solvent/surfactant solvent system, pH 4.7, aqueous with cosolvent or surfactant or cyclodextrin, 4% EtOH, 0.04% PS80, 96.0% water, pH 4.7): 22.5 mg/mL (≈ 121 mM) | solubility ([1]; aqueous co-solvent/surfactant solvent system, pH 4.9, aqueous with cosolvent or surfactant or cyclodextrin, 4% EtOH, 0.1% CPB, 95.9% water, pH 4.9): 20.2 mg/mL (≈ 109 mM) | solubility ([1]; aqueous co-solvent/surfactant solvent system, pH 4.9, aqueous with cosolvent or surfactant or cyclodextrin, 4% Gly, 0.04% PS80, 96.0% water, pH 4.9): 20 mg/mL (≈ 108 mM) | solubility ([1]; aqueous co-solvent/surfactant solvent system, pH 5, aqueous with cosolvent or surfactant or cyclodextrin, 8% PG, 0.1% CPB, 91.9% water, pH 5.0): 22.3 mg/mL (≈ 120 mM) | solubility ([1]; aqueous co-solvent/surfactant solvent system, pH 5.8, aqueous with cosolvent or surfactant or cyclodextrin, 4% EtOH, 8% PG, 0.04% PS80, 88.0% water, pH 5.8): 28.9 mg/mL (≈ 156 mM) | solubility ([1]; aqueous co-solvent/surfactant solvent system, pH 6.1, aqueous with cosolvent or surfactant or cyclodextrin, 4% EtOH, 0.1% CPB, 95.9% water, pH 6.1): 23.9 mg/mL (≈ 129 mM) | solubility ([1]; aqueous co-solvent/surfactant solvent system, pH 6.2, aqueous with cosolvent or surfactant or cyclodextrin, 0.1% CPB, 99.9% water, pH 6.2): 20 mg/mL (≈ 108 mM) | solubility ([1]; aqueous co-solvent/surfactant solvent system, pH 6.2, aqueous with cosolvent or surfactant or cyclodextrin, 4% EtOH, 8% PG, 88.0% water, pH 6.2): 30 mg/mL (≈ 162 mM) | solubility ([1]; aqueous co-solvent/surfactant solvent system, pH 6.2, aqueous with cosolvent or surfactant or cyclodextrin, 8% PG, 0.1% CPB, 91.9% water, pH 6.2): 23.4 mg/mL (≈ 126 mM) | solubility ([1]; aqueous co-solvent/surfactant solvent system, pH 6.5, aqueous with cosolvent or surfactant or cyclodextrin, 0.04% PS80, 100.0% water, pH 6.5): 19.9 mg/mL (≈ 107 mM) | solubility ([1]; aqueous co-solvent/surfactant solvent system, pH 6.5, aqueous with cosolvent or surfactant or cyclodextrin, 4% Gly, 0.04% PS80, 96.0% water, pH 6.5): 20.2 mg/mL (≈ 109 mM) | solubility ([1]; aqueous co-solvent/surfactant solvent system, pH 6.6, aqueous with cosolvent or surfactant or cyclodextrin, 4% EtOH, 8% PG, 0.04% PS80, 88.0% phosphate buffer (5 mM), pH 6.6): 29.4 mg/mL (≈ 159 mM) | solubility ([1]; aqueous co-solvent/surfactant solvent system, pH 6.6, aqueous with cosolvent or surfactant or cyclodextrin, 4% EtOH, 8% PG, 88.0% phosphate buffer (5 mM), pH 6.6): 27.2 mg/mL (≈ 147 mM) | solubility ([1]; aqueous co-solvent/surfactant solvent system, pH 6.6, aqueous with cosolvent or surfactant or cyclodextrin, 8% EtOH, 0% PG, 92% phosphate buffer (5 mM), pH 6.6): 26.7 mg/mL (≈ 144 mM) | solubility ([1]; aqueous co-solvent/surfactant solvent system, pH 6.6, aqueous with cosolvent or surfactant or cyclodextrin, 8% PG, 0.04% PS80, 92.0% water, pH 6.6): 23.2 mg/mL (≈ 125 mM) | solubility ([1]; aqueous co-solvent/surfactant solvent system, pH 6.7, aqueous with cosolvent or surfactant or cyclodextrin, 4% EtOH, 0.04% PS80, 96.0% water, pH 6.7): 24.5 mg/mL (≈ 132 mM) | solubility ([1]; aqueous co-solvent/surfactant solvent system, pH 6.7, aqueous with cosolvent or surfactant or cyclodextrin, 8% EtOH, 12% PG, 80% phosphate buffer (5 mM), pH 6.7): 37.7 mg/mL (≈ 204 mM) | solubility ([1]; aqueous co-solvent/surfactant solvent system, pH 6.8, aqueous with cosolvent or surfactant or cyclodextrin, 0% EtOH, 16% PG, 84% phosphate buffer (5 mM), pH 6.8): 29.3 mg/mL (≈ 158 mM) | solubility ([1]; aqueous co-solvent/surfactant solvent system, pH 6.8, aqueous with cosolvent or surfactant or cyclodextrin, 2% EtOH, 16% PG, 82% phosphate buffer (5 mM), pH 6.8): 31 mg/mL (≈ 167 mM) | solubility ([1]; aqueous co-solvent/surfactant solvent system, pH 6.8, aqueous with cosolvent or surfactant or cyclodextrin, 8% EtOH, 4% PG, 88% phosphate buffer (5 mM), pH 6.8): 30.4 mg/mL (≈ 164 mM) | solubility ([1]; aqueous co-solvent/surfactant solvent system, pH 6.8, aqueous with cosolvent or surfactant or cyclodextrin, 8% EtOH, 8% PG, 84% phosphate buffer (5 mM), pH 6.8): 35 mg/mL (≈ 189 mM) | solubility ([1]; aqueous co-solvent/surfactant solvent system, pH 6.8, aqueous with cosolvent or surfactant or cyclodextrin, 8% EtOH, 16% PG, 76% phosphate buffer (5 mM), pH 6.8): 45.4 mg/mL (≈ 245 mM) | solubility ([1]; aqueous co-solvent/surfactant solvent system, pH 6.9, aqueous with cosolvent or surfactant or cyclodextrin, 4% EtOH, 16% PG, 80% phosphate buffer (5 mM), pH 6.9): 36.8 mg/mL (≈ 199 mM) | solubility ([1]; aqueous co-solvent/surfactant solvent system, pH 6.9, aqueous with cosolvent or surfactant or cyclodextrin, 6% EtOH, 16% PG, 78% phosphate buffer (5 mM), pH 6.9): 40.9 mg/mL (≈ 221 mM) | solubility ([1]; aqueous co-solvent/surfactant solvent system, pH 7, aqueous with cosolvent or surfactant or cyclodextrin, 6% EtOH, 12% PG, 82.0% phosphate buffer (5 mM), pH 7.0): 34.7 mg/mL (≈ 187 mM) | solubility ([1]; aqueous co-solvent/surfactant solvent system, pH 7, aqueous with cosolvent or surfactant or cyclodextrin, 8% EtOH, 16% PG, 76.0% phosphate buffer (5 mM), pH 7.0): 43.7 mg/mL (≈ 236 mM) | solubility ([1]; citrate buffer with co-solvent, pH 4.4, aqueous buffer, 4% Gly, 96.0% citrate buffer (10 mM), pH 4.4): 19.8 mg/mL (≈ 107 mM) | solubility ([1]; citrate buffer with co-solvent, pH 4.4, aqueous with cosolvent or surfactant or cyclodextrin, 8% PG, 92.0% citrate buffer (10 mM), pH 4.4): 23.2 mg/mL (≈ 125 mM) | solubility ([1]; citrate buffer with co-solvent, pH 4.5, aqueous buffer, 4% EtOH, 96.0% citrate buffer (10 mM), pH 4.5): 22.3 mg/mL (≈ 120 mM) | solubility ([1]; citrate buffer with surfactant, pH 4.5, aqueous with cosolvent or surfactant or cyclodextrin, 0.04% PS80, 100.0% citrate buffer (10 mM), pH 4.5): 19.1 mg/mL (≈ 103 mM) | solubility ([1]; water with co-solvent, pH 4.8, water, 4% Gly, 96.0% water, pH 4.8): 20.1 mg/mL (≈ 109 mM) | solubility ([1]; water with co-solvent, pH 5, aqueous with cosolvent or surfactant or cyclodextrin, 8% PG, 92.0% water, pH 5.0): 24.3 mg/mL (≈ 131 mM) | solubility ([1]; water with co-solvent, pH 5, water, 4% EtOH, 96.0% water, pH 5.0): 22.8 mg/mL (≈ 123 mM) | solubility ([1]; water with co-solvent, pH 6.7, water, 4% Gly, 96.0% water, pH 6.7): 20.1 mg/mL (≈ 109 mM) | solubility ([1]; water with co-solvent, pH 6.8, aqueous with cosolvent or surfactant or cyclodextrin, 8% PG, 92.0% water, pH 6.8): 24.6 mg/mL (≈ 133 mM) | solubility ([1]; water with co-solvent, pH 6.9, water, 4% EtOH, 96.0% water, pH 6.9): 24.3 mg/mL (≈ 131 mM) | solubility ([1]; water with surfactant, pH 4.8, aqueous with cosolvent or surfactant or cyclodextrin, 0.04% PS80, 100.0% water, pH 4.8): 8.3 mg/mL (≈ 44.8 mM) | Est. Osmolality ([2]; MgCl2 130 mM, pH 5.5, pirfenidone 16 mg/mL): 490 mOsmo/Kg | Throat Irritation ([2]; MgCl2 130 mM, pH 5.5, pirfenidone 16 mg/mL, 3.7 micron): 3 | Est. Osmolality ([2]; MgCl2 130 mM, saccharin 0.5 mM, pH 5.5, pirfenidone 16 mg/mL): 490 mOsmo/Kg | Throat Irritation ([2]; MgCl2 130 mM, saccharin 0.5 mM, pH 5.5, pirfenidone 16 mg/mL, 3.7 micron): 2 | Est. Osmolality ([2]; NaCl 100 mM, MgCl2 43.3 mM, pH 5.5, pirfenidone 16 mg/mL): 430 mOsmo/Kg | Throat Irritation ([2]; NaCl 100 mM, MgCl2 43.3 mM, pH 5.5, pirfenidone 16 mg/mL, 3.7 micron): 3 | Est. Osmolality ([2]; NaCl 100 mM, MgCl2 43.3 mM, saccharin 0.6 mM, pH 5.5, pirfenidone 16 mg/mL): 430 mOsmo/Kg | Throat Irritation ([2]; NaCl 100 mM, MgCl2 43.3 mM, saccharin 0.6 mM, pH 5.5, pirfenidone 16 mg/mL, 3.7 micron): 2 | Est. Osmolality ([2]; NaCl 100 mM, pH 5.5, pirfenidone 4 mg/mL): 270 mOsmo/Kg | Throat Irritation ([2]; NaCl 100 mM, pH 5.5, pirfenidone 4 mg/mL, 3.2 micron): 2 | Est. Osmolality ([2]; NaCl 100 mM, pH 5.5, pirfenidone 16 mg/mL (3.2 micron entry)): 400 mOsmo/Kg | Est. Osmolality ([2]; NaCl 100 mM, pH 5.5, pirfenidone 16 mg/mL (first 3.7 micron entry)): 400 mOsmo/Kg | Est. Osmolality ([2]; NaCl 100 mM, pH 5.5, pirfenidone 16 mg/mL (second 3.7 micron entry)): 400 mOsmo/Kg | Throat Irritation ([2]; NaCl 100 mM, pH 5.5, pirfenidone 16 mg/mL, 3.2 micron): 2 | Throat Irritation ([2]; NaCl 100 mM, pH 5.5, pirfenidone 16 mg/mL, 3.7 micron (first entry)): 3 | Throat Irritation ([2]; NaCl 100 mM, pH 5.5, pirfenidone 16 mg/mL, 3.7 micron (second entry)): 3 | Est. Osmolality ([2]; NaCl 100 mM, saccharin 0.3 mM, pH 5.5, pirfenidone 4 mg/mL): 270 mOsmo/Kg | Throat Irritation ([2]; NaCl 100 mM, saccharin 0.3 mM, pH 5.5, pirfenidone 4 mg/mL, 3.7 micron): 2 | Est. Osmolality ([2]; NaCl 100 mM, saccharin 0.7 mM, pH 5.5, pirfenidone 16 mg/mL (3.2 micron entry)): 400 mOsmo/Kg | Est. Osmolality ([2]; NaCl 100 mM, saccharin 0.7 mM, pH 5.5, pirfenidone 16 mg/mL (3.7 micron entry)): 400 mOsmo/Kg | Est. Osmolality ([2]; NaCl 100 mM, saccharin 0.7 mM, pH 5.5, pirfenidone 16 mg/mL (4.6 micron entry)): 400 mOsmo/Kg | Throat Irritation ([2]; NaCl 100 mM, saccharin 0.7 mM, pH 5.5, pirfenidone 16 mg/mL, 3.2 micron): 3
